Data on 1 substance can be found in patent US8389680B2, “Treatment of Aspergillus infections with alpha thymosin peptides” (SciClone Pharmaceuticals, Inc., priority 2003, dated 2013).

One assay deals with A. fumigatus. The assay is described as follows: Local fungal growth after Aspergillus infection of TLR2-, TLR9- or MyD88-deficient mice. Format: in vivo. From the text: Female, 8- to 10-weeks old, BALB/c and C57BL6 mice were from Charles River. NOD/SCID were from The Jackson. Breeding pairs of homozygous TLR2-, TLR9- and MyD88-deficient mice, raised on C57BL6 background, and of homozygous IFN-gamma- and IL-4-deficient mice, raised on BALB/c background, were bred under specific-pathogen free conditions.
For infection with A. fumigatus, mice were intranasally injected for 3 consecutive days with a suspension of 2×10^7 conidia/20 microliter saline. For the quantification of fungal growth in the lungs, the chitin assay was used. The chitin content was expressed as micrograms of glucosamine per organ. The glucosamine content of lungs from uninfected mice was used as a negative control ranging between 0.80 and 2.25 microgram glucosamine/organ. For histological analysis, lungs were excised and immediately fixed in formalin. Sections (3 to 4 micron) of paraffin-embedded tissues were stained with the periodic acid-Schiff procedure. Thymosin alpha 1 (TA1) and the scrambled polypeptide are as purified sterile lyophilized acetylated polypeptides with endotoxin levels less than 0.03 pg/ml, by a standard limulus lysate assay. The sequences were as follows: Ac-[…]O (Thymosin alpha 1, SEQ ID NO.: 1) and Ac-[…]OH ([…]). Their lyophilized powders were reconstituted in sterile water.
The treatments were as follows; in BMT-mice, TA1, at different doses administered intraperitoneally, sthymosin alpha 1, 400 microgram/kg administered intraperitoneally or human recombinant G-CSF 250 microgram/kg administered intravenously, were given daily beginning the day of the BM infusion, in concomitance with the infection and continuing for an additional 3 days. Amphotericin B was given daily for 3 days in concomitance with the infection, at a dose of 4000 microgram/kg, administered intraperitoneally. This dose would cure IA in cyclophosphamide-treated mice. Cyclophosphamide, 150 mg/kg administered intraperitoneally, was given a day before the infection. […]

For assay [1], the system named is human MDC and PDC subsets. Description: Activation of human MDC and PDC subsets: phagocytosis, phenotype, cytokine release. It is filed as cell-based. The procedure: (§1) Blood CD 11c^+ myeloid DCs (MDCs) were generated from CD 14^+ mononuclear cells by magnetic cell sorting and cultured for 5 days in Iscove's modified medium, containing 10% fetal bovine serum, 50 micromolar 2-mercaptoethanol, sodium pyruvate (1 mM), 2 mM L-glutamine, HEPES (10 mM), and 50 micrograms/ml gentamycin in the presence of 50 ng/ml rHuman GM-CSF and 200 U/ml rHuman IL-4. Immature MDCs were cultured for 24 hours with 1000 ng/ml trimeric human CD40 ligand-leucine-zipper fusion protein to obtain mature DCs. CD 123^+ plasmacytoid DCs (PDCs) were isolated using the BDCA-4 isolation kit. Purity of CD 123^+ cells was >96%. For mature PDCs, immature DCs were cultured with the trimeric human CD40 ligand as above and 10 ng/ml IL-3. […] The expression of HLA Class II, CD80 and CD86 was high in both immature and mature DCs. Murine lung CD 11c^+ DCs (between 5 to 7% positive for CD8alpha and between 30 to 35% positive for Gr-1) were isolated by magnetic cell sorting. For phagocytosis, DCs were pre-exposed to 100 ng/ml TA1 for 60 minutes and subsequently incubated at 37° C. with Aspergillus conidia for an additional 60 minutes. The percentage of internalization was calculated and photographs were taken. In assessing functional maturation and cytokine determination, purified DCs were resuspended in Iscove's medium (with no serum but with polymixin B, to avoid non-specific activation by serum components and endotoxin) and pulsed with 100 ng/ml TA1 for 24 hours either alone or together with TLR ligands or unopsonized Aspergillus conidia. Cell surface phenotype was assessed by reacting samples with FITC- or PE-conjugated rat anti-mouse antibodies. Unrelated hisotype matched antibodies were used as control. The levels of TNF-alpha, IL-10, IL-12 p70, IFN-alpha and IL-8 in culture supernatants were determined by Kit ELISAs. The detection limits (pg/ml) of the assays were <3 (human) and <32 (murine) for TNF-alpha, <12 (murine) and <5 (human) for IL-10, <16 (murine) and <3 (human) for IL-12 p70 and <25 (human) IL-8. For human IFN-alpha <3 ng/ml. For enumeration of cytokine-producing cells, an ELISPOT assay was used on purified CD4^+ T cells and DCs from lungs.

For a further assay, the system named is lung DCs. The assay is described as follows: Activation of murine lung DCs: phagocytosis of Aspergillus conidia, costimulatory antigen expression, cytokine production. It is filed as cell-based. The procedure: as §1, with “For” for “Blood CD 11c^+ myeloid DCs (MDCs) were generated from CD 14^+ mononuclear cells by magnetic cell sorting and cultured for 5 days in Iscove's modified medium, containing 10% fetal bovine serum, 50 micromolar 2-mercaptoethanol, sodium pyruvate (1 mM), 2 mM L-glutamine, HEPES (10 mM), and 50 micrograms/ml gentamycin in the presence of 50 ng/ml rHuman GM-CSF and 200 U/ml rHuman IL-4. Immature MDCs were cultured for 24 hours with 1000 ng/ml trimeric human CD40 ligand-leucine-zipper fusion protein to obtain mature DCs. CD 123^+ plasmacytoid DCs (PDCs) were isolated using the BDCA-4 isolation kit. Purity of CD 123^+ cells was >96%. For”

[2] abbreviates: combined exposure to Aspergillus conidia and TA1.

For the substance “Ac-Ser-Asp-Ala-Ala-Val-Asp-Thr-Ser-Ser-Glu-Ile-Thr-Thr-Lys-Asp-Leu-Lys-Glu-Lys-Lys-Glu-Val-Glu-Glu-Ala-Glu-Asn-O (Ac-SDAAVDTSSEITTKDLKEKKEVEEAEN-OH) [TA1, naturally occurring thymic peptide]”, the fungal growth result with A. fumigatus (MyD88-deficient mice) was “not impaired”; in the assay with A. fumigatus (TLR2-deficient mice), “similarly impaired”; with A. fumigatus (TLR9-deficient mice), “similarly impaired”. Also, the “activation of human MDC and PDC subsets” value in assay [1] (100 ng/ml) is on record as “activates”. Besides, the “phagocytic activity of immature DCs” value in assay [1] (Aspergillus conidia, 100 ng/ml pre-exposure 60 minutes) is “increased”. The IFN-alpha production entry in assay [1] (PDCs, in response to the TLR9 ligand CpG) is “significantly potentiated”. The DC morphology result in assay [1] (immature MDCs) is “more cytoplasmic projections”. For the same substance, the “release of IL-12 p70” value in assay [1] (immature MDCs, in response to conidia) is “significantly increase”; in assay [1] (immature MDCs, in response to zymosan), “significantly increase”. Besides, the “release of IL-10” value in assay [1] (immature PDCs, in response to conidia) is “significantly increase”. Besides, in assay [1] (in response to conidia), the “HLA Class II antigens and costimulatory molecule expression” value was “up-regulate”. Moreover, in the assay with lung DCs (100 ng/ml), the “activation of lung DCs for phagocytosis of unopsonized conidia, costimulatory antigen expression and cytokine production” value is given as “activates”. In addition, in the assay with lung DCs (setting [2]), the “expression of MHC Class II antigens, CD86 and CD40 molecules” value was “remarkably increased”. The “frequency of IL-12 p70-producing DCs” value in the assay with lung DCs (setting [2]) is given as “remarkably increased”; in the assay with lung DCs (thymosin alone), “also increased”.
